Structures can show the parent of a compound that is named as a salt. Where two headings read alike, the source gives them in different places. Where no end group is shown, it is not given here. Some results are limits rather than exact numbers.

The text below walks through data of publication PMC10581251, “Antisense inhibition of RNA polymerase α subunit of Clostridioides difficile” (Microbiology Spectrum, 2023).

The subject of experiment [1] is C. difficile ATCC 630. Description: microbe, parasite or virus in culture. The method, then:
(§1) The susceptibility of C. difficile isolates to the CPP-PNA conjugates or to the CPP alone was determined in vitro as described before with slight modifications ([43] [–] [45]). Briefly, the CPP-PNA conjugates, the CPP alone, and the antibiotics vancomycin and fidaxomicin were added in triplicate to the first row of ultra-low adhesion 96-well plates (Corning Inc., Corning, NY). A suspension of C. difficile equivalent to 0.5 McFarland solution was added to Mueller-Hilton II broth, which was then added to the ultra-low adhesion plate and then serially diluted. The plates were incubated anaerobically for 48 hours at 37°C. The minimum inhibitory concentration was defined as the lowest concentration of the CPP-PNA conjugate that could inhibit bacterial growth when observed visually.
(§2) The MIC and MBC experiments were repeated twice.

In a further experiment the test system is C. difficile ATCC 43255. The experiment in a line: MIC/MBC broth microdilution, C. difficile ATCC 43255. In kind it is cell-based, Clostridioides difficile. The method, then: as §1, §2
The test system of experiment [2] is clinical isolates of C. difficile. Description: MIC against clinical isolates of C. difficile (summary). In kind it is cell-based, Clostridioides difficile. As to conditions: range over isolates of Table 3. The method, then:
as §1, §2

Experiment [3] deals with C. difficile ATCC BAA 1870. The experiment in a line: MIC/MBC broth microdilution, C. difficile ATCC BAA 1870. In kind it is cell-based, Clostridioides difficile. The method, then:
as §1, §2

The test system of a further experiment is C. difficile 1071. The experiment in a line: MIC/MBC broth microdilution, C. difficile 1071. In kind it is cell-based, Clostridioides difficile. The protocol: as §1, §2
For experiment [4], the system named is Lactobacillus gasseri ATCC 19992. Description: MIC gut microflora, Lactobacillus gasseri. It is filed as cell-based. The protocol:
(§3) The susceptibility of gut microflora strains to the rpoA-TAT conjugate was determined using the broth microdilution assay, as described above. Briefly, bacterial suspensions of Bifidobacterium sp. and Bacteroides sp., in supplemented BHIS broth, and Lactobacilli strains, in MRS broth, were added to ultra-low adhesion 96-well plates and serially diluted. The MIC was recorded after 48 hours.

Another experiment has as its system C. difficile 1079. The experiment in a line: MIC/MBC broth microdilution, C. difficile 1079. It is filed as cell-based, Clostridioides difficile. The method, then:
as §1, §2

Experiment [5] relates to Bacteroides fragilis HM 714. The experiment in a line: MIC gut microflora, Bacteroides fragilis. It is filed as cell-based. As to conditions: Bacteroides fragilis, HM714, 48 h. The protocol:
as §3

Experiment [6] concerns Bifidobacterium longum subsp. longum HM 846. The experiment in a line: MIC gut microflora, Bifidobacterium longum. In kind it is cell-based. The method, then:
as §3

Experiment [7] concerns spore formation by C. difficile ATCC 630. Description: Spore formation inhibition. It is filed as cell-based, Clostridioides difficile. As to conditions: 0.5× MIC, 12 hours. The method, then: After the incubation period, the total bacterial count for each treatment group was determined by serial dilution and plating on BHIS agar plates supplemented with 0.1% taurocholic acid. To determine the presence of spores, the remaining bacterial culture from each treatment group was heated at 65°C for 30 minutes to ensure all vegetative cells were killed. The bacterial culture from each treatment group was then serially diluted and plated on BHIS agar plates supplemented with 0.1% taurocholic acid. The plates were incubated overnight, and the CFU counts for each treatment group were determined the following day.

For a further experiment, the system named is C. difficile 1082. The experiment in a line: MIC/MBC broth microdilution, C. difficile 1082. It is filed as cell-based, Clostridioides difficile. The protocol:
as §1, §2

Experiment [8] deals with toxin A and toxin B production by C. difficile 630. The experiment in a line: Toxin production inhibition (ELISA). It is filed as cell-based, Clostridioides difficile. As to conditions: sub-inhibitory concentrations 0.125×, 0.25×, 0.5× MIC, 8 hours, ELISA. The method, then:
After the incubation period, the bacterial count in each treatment group was determined by serial dilution and plating. Toxin content in the supernatant of each treatment group was determined using an enzyme-linked immunosorbent assay (ELISA, tgcBIOMICS) kit, as per the manufacturer’s protocol.

Experiment [9] relates to Lactobacillus brevis ATCC 14869. The experiment in a line: MIC gut microflora, Lactobacillus brevis. It is filed as cell-based. As to conditions: Levilactobacillus brevis, ATCC14869, 48 h. The method, then: as §3
Experiment [10] relates to C. difficile 630. The experiment in a line: Killing kinetics (time-kill assay). As to conditions: 1× MIC, within 24 hours of incubation, inoculum ~5 × 10^5 CFU/mL. In kind it is cell-based, Clostridioides difficile. The method, then:
The killing kinetics of the PNA construct was determined as described previously ([45] [–] [47]). Briefly, an overnight culture of C. difficile 630 was diluted 1:50 into fresh Mueller Hilton II broth (~10^5 CFU/mL) and added in triplicate to low adhesion microcentrifuge tubes containing either sterile water, the rpoA-TAT construct (1× MIC), or the positive controls vancomycin or fidaxomicin (1× MIC). The number of viable bacteria in each treatment group was determined by taking aliquots at 0, 4, 8, 12, 16, and 24 hours; these aliquots were then serially diluted and plated on BHIS agar plates. The plates were incubated anaerobically, and the number of colony-forming units for each treatment group was recorded the following day. The experiment was repeated twice.

In experiment [11] the test system is C. difficile ATCC BAA 1870. The experiment in a line: Effect of pH on MIC/MBC, C. difficile ATCC BAA 1870. In kind it is cell-based, Clostridioides difficile. As to conditions: Clostridioides difficile. The protocol: as §1, §2
(§4) The susceptibility of C. difficile (ATCC 630 and ATCC BAA 1870) to the rpoA-TAT conjugate was evaluated over a pH range of 6 to 9 using the broth microdilution method ([43], [46] [–] [48]). The desired pH for susceptibility testing was attained by the addition of either 0.1 N HCL or 1 N NaOH to the media. The experiment was repeated twice.

The test system of experiment [12] is Lactobacillus rhamnosus ATCC 53103. The experiment in a line: MIC gut microflora, Lactobacillus rhamnosus. It is filed as cell-based. The following applies: Lacticaseibacillus rhamnosus, ATCC53103, 48 h. The protocol:
as §3

Experiment [13] relates to C. difficile 630. Description: Effect of high bacterial inoculum on activity. It is filed as cell-based, Clostridioides difficile. The following applies: 8 hours. The protocol: The in vitro efficacy of the PNA constructs against a high inoculum size of C. difficile 630 was determined. Briefly, the PNA constructs and control antibiotics, at a concentration of 1× MIC, were added in triplicate to low adhesion microcentrifuge tubes (Corning Inc., Corning, NY). A high inoculum of C. difficile suspension equivalent to ~5 × 10^6 and ~5 × 10^7 cells was added to the tubes, which were incubated anaerobically at 37°C. The number of viable bacteria in each treatment group was determined by serial dilution and plating on BHIS agar plates at 8 hours and 24 hours post-incubation, respectively. The effect of a high inoculum on the activity of the PNA construct was repeated twice.

Experiment [14] relates to C. difficile ATCC 630. The experiment in a line: Effect of pH on MIC/MBC, C. difficile ATCC 630. It is filed as cell-based, Clostridioides difficile. As to conditions: Clostridioides difficile. The protocol:
as §1, §2, §4

[15] abbreviates: aliquots of wells without growth plated on BHIS agar, repeated twice.
Where [16] appears, read: broth microdilution, Mueller-Hilton II broth, anaerobic 48 hours 37°C, visual, triplicate, repeated twice.
Setting [17] is: broth microdilution, anaerobic 48 hours 37°C, visual, read-out: MIC.
Where [18] appears, read: plated on BHIS agar, read-out: MBC.

In the experiment with C. difficile ATCC 630 [1] (setting [15]), “RXRRXRRXRRXRXB-O-CATGGACAAAAC-NH2 [(RXR)4XB -rpoA]” came in with an MBC of 8 µM. The same molecule yielded an MIC in the experiment with C. difficile ATCC 630 [1] (setting [16]) of 8 µM.
In turn, “RFRRFRRFRRFRXB-O-CATGGACAAAAC-NH2 [(RFR)4XB -rpoA]” registered an MBC in the experiment with C. difficile ATCC 630 [1] (setting [15]) of 8 µM. The same molecule had an MIC against C. difficile ATCC 630 [1] (setting [16]) of 8 µM.
In the case of GRKKKRRQRRRYK [HIV-TAT], the MIC in the experiment with C. difficile ATCC 630 [1] (setting [16]) was more than 64 µM.
“GRKKKRRQRRRYK-O-CATACAATTCTC-NH 2 [rpoA-TAT mismatch, mismatch control PNA conjugated to the TAT cell penetrating peptide]”: the MBC (in the experiment with C. difficile ATCC 630 [1] (setting [15]); in the experiment with C. difficile ATCC 43255 (setting [18]); in [3] (setting [18])) was more than 32 µM throughout. The MIC (against C. difficile ATCC 630 [1] (setting [16]); in the experiment with C. difficile ATCC 43255 (setting [17]); in experiment [3] (setting [17])) was more than 32 µM each time. The “MIC against clinical isolates of C. difficile” value in [2] is on record as more than 32 µM.
Take `CN[C@H](CC(C)C)C(=O)N[C@H]1C(=O)N[C@@H](CC(N)=O)C(=O)N[C@H]2C(=O)N[C@H]3C(=O)N[C@H](C(=O)N[C@H](C(=O)O)c4cc(O)cc(O)c4-c4cc3ccc4O)[C@H](O)c3ccc(c(Cl)c3)Oc3cc2cc(c3O[C@@H]2O[C@H](CO)[C@@H](O)[C@H](O)[C@H]2O[C@H]2C[C@](C)(N)[C@H](O)[C@H](C)O2)Oc2ccc(cc2Cl)[C@H]1O` [Vancomycin, Vancomycin hydrochloride]: the MBC in the experiment with C. difficile 1071 (Clostridioides difficile, 1071) came to 2 µM; against C. difficile ATCC 630 [1] (Clostridioides difficile, ATCC630), 2 µM; against C. difficile 1079 (Clostridioides difficile, 1079), 2 µM; in the experiment with C. difficile ATCC 43255 (Clostridioides difficile, ATCC43255) it was 4 µM; in the experiment on C. difficile 1082 (Clostridioides difficile, 1082), 2 µM; in experiment [11] (BAA1870, pH 6), 4 µM. For the same molecule, the MBC is 8 µM in experiment [11] (BAA1870, pH 7); 16 µM in experiment [11] (BAA1870, pH 8); 4 µM in experiment [3] (Clostridioides difficile, BAA1870); 2 µM against C. difficile ATCC 630 [14] (ATCC630, pH 6); 4 µM against C. difficile ATCC 630 [14] (ATCC630, pH 7); 16 µM against C. difficile ATCC 630 [14] (ATCC630, pH 8). In addition, the MIC with C. difficile 1071 (Clostridioides difficile, 1071, 48 h) amounted to 2 µM; in experiment [4] (Lactobacillus gasseri, ATCC19992, 48 h) it was 1 µM; in experiment [4] (broth microdilution, MRS broth, 48 hours, read-out: MIC), 1 µM; against C. difficile ATCC 630 [1] (Clostridioides difficile, ATCC630, 48 h) it was 2 µM; against C. difficile 1079 (Clostridioides difficile, 1079, 48 h), 2 µM; in [5] it was 64 µM. The MIC with C. difficile ATCC 43255 (Clostridioides difficile, ATCC43255, 48 h) was 4 µM; in experiment [6] (Bifidobacterium longum, 48 h), 2 µM; in experiment [6] (broth microdilution, supplemented BHIS broth, 48 hours), 2 µM; with C. difficile 1082 (Clostridioides difficile, 1082, 48 h), 2 µM; in experiment [9], more than 64 µM; in experiment [11] (BAA1870, pH 6), 4 µM. For the same molecule, the MIC in experiment [11] (BAA1870, pH 7) is 4 µM; in experiment [11] (BAA1870, pH 8) it was 8 µM; in experiment [3] (Clostridioides difficile, BAA1870, 48 h) it was 4 µM; in experiment [12] it was more than 64 µM; in the experiment on C. difficile ATCC 630 [14] (ATCC630, pH 6) it was 2 µM; with C. difficile ATCC 630 [14] (ATCC630, pH 7) it was 4 µM. In the experiment with C. difficile ATCC 630 [14] (ATCC630, pH 8), this molecule yielded an MIC of 8 µM. Also, the “inhibition of spore formation (in words)” value in experiment [7] is “did not inhibit spore formation”. Also, the “inhibition of toxin production (in words)” value in experiment [8] is “did not inhibit toxin production”. Moreover, the “reduction of bacterial burden” value in the experiment with C. difficile 630 [10] is listed as ~ 1.6 log10 CFU/mL. Further, the “Log CFU” value in the experiment on C. difficile 630 [13] (inoculum 5 × 10^6, 1× MIC) came to 5.37; with C. difficile 630 [13] (inoculum 5 × 10^7, 1× MIC) it was 7.03. Besides, the Log reduction with C. difficile 630 [13] (inoculum 5 × 10^6, 1× MIC, vs no treatment) was 1.
In the case of KKKKKKKK-O-CATGGACAAAAC-NH2 [K8-rpoA], the MBC with C. difficile ATCC 630 [1] (setting [15]) is on record as 32 µM. In the experiment with C. difficile ATCC 630 [1] (setting [16]), this molecule registered an MIC of 32 µM.
In turn, “KFFKFFKFFK-O-CATGGACAAAAC-NH2 [(KFF)3K-rpoA]” yielded an MBC with C. difficile ATCC 630 [1] (setting [15]) of 32 µM. The same molecule gave an MIC in the experiment with C. difficile ATCC 630 [1] (setting [16]) of 32 µM.
